Patent US11015179B2, “Peptide having anti-viral effect and composition containing same” (priority 2015, dated 2021)

Experiments:
HBV [1] = experiment: HBsAg ELISA in whole HBV W4P genome-transfected HepG2 cell line; format: cell-based, hepatitis B virus; conditions: 48 hours
HBV [2] = experiment: Virion production (real-time PCR of HBV DNA) in W4P-transfected HepG2 cell line; format: cell-based, hepatitis B virus
Protocol: (§1) To observe the potential for virion proliferation of whole HBV containing W4P, virion DNA was extracted from the entire supernatant while the medium was changed every 24 hours by the above-described method, and subjected to real-time quantitative PCR using a Quantitech SYBR Green Master-Mix kit (Qiagen). The entire supernatant was centrifuged using an ultracentrifuge equipped with an SW28 swing rotor at 20,000 rpm for 2 hours to precipitate the virus, and the precipitated viral pellets were suspended with 200 μl of sterilized DW. […] Real-time PCR was performed at 40 cycles of 5 min at 95° C., 15 sec at 94° C., and 15 sec at 60° C. using the Exicycler™ 96 Real-Time Quantitative Thermal Block System (Bioneer Co., Korea), and the temperature was increased from 53° C. to 90° C. by modulating to 0 sec at 95° C., 30 sec at 53° C. and modulating by 0.1° C. per second to analyze a melting curve.
To observe the virion production in the supernatant after the inhibition of HBsAg secretion by the PEP1 peptide was observed, virions were collected from the supernatant obtained by the above-described method using PEG 6000, and HBV DNA was obtained using a virus DNA prep kit (Intron, Korea), and then quantified by real-time PCR. […]

HBV [3] = experiment: Virion production (real-time PCR of HBV DNA) in W4P-transfected Huh7 cell line; format: cell-based, hepatitis B virus; conditions: Huh7, 10 μM, 48 hours
Protocol: as §1
To observe the virion production in the supernatant after the inhibition of HBsAg secretion by the PEP1 peptide was observed, virions were collected from the supernatant obtained by the above-described method using PEG 6000, and HBV DNA was obtained using a virus DNA prep kit (Intron, Korea), and then quantified by real-time PCR.

IL-6 = IL-6 ELISA in culture supernatant of W4P-transfected Huh7 cell line; format: cell-based, human; conditions: Huh7, 10 μM, 48 hours
Protocol: It has been reported that HBV preS1 W4P variants are closely related to production of IL-6, which is an inflammation regulatory cytokine. Therefore, to observe an anti-inflammatory effect of PEP1 in IL-6-induced cell lines, 48 hours after the whole HBV W4P genome was injected into HepG2 and Huh7 cell lines which were then treated with 10 μM PEP1 and 10 μM 3TC, respectively, IL-6 levels in the culture supernatants were observed through ELISA.

HBV [4] = format: in vivo, mice; conditions: caudal vein twice a week; PEP1 50 μg/kg, 3TC 500 μg/kg
Protocol: HBV transgenic mice were prepared by injecting a 1.1-fold HBV base sequence comprising a full open reading frame (ORF) into the fertilized eggs of the mice through microinjection. The base sequence of HBV used in the research was obtained using a pHY92-W4P plasmid. The pHY92-W4P plasmid was digested with EcoRi before injection into the fertilized eggs of the mice, and finally a base sequence of 3.9 kb in length was used for microinjection. Produced subjects were selected through PCR using a specific sequence of HBsAg. PCR-positive subjects were selected according to the concentrations of serum HBsAg and HBeAg, and finally used as PCR-positive, HBsAg-positive, and HBeAg-positive mice in the study. These mice were backcrossed with C57BL/6 mice to produce heterologous HBV transgenic mice.
HBsAg levels in the HBV-transgenic mice were determined using an HBsAg ELISA kit (BIOKIT, Germany). To quantify HBV titers, total DNA was extracted and confirmed by real-time PCR.
In addition, HBV virion DNA was obtained from mouse serum and subjected to real-time PCR.

HSP 90, SOD, ERK, JAK2 = experiment: Liver protein expression (western blotting) in whole HBV W4P genome-transgenic mice; format: in vivo; conditions: week 8; PEP1 50 μg/kg, 3TC 500 μg/kg
Protocol: To observe a change in protein expression affecting the antiviral effect by the PEP1 peptide, transgenic mice prepared by injecting the whole HBV W4P variant genome were used. The PEP1 peptide was injected into the caudal vein of the mouse at a concentration of 50 μg/kg twice a week. As a control group, 500 μg/kg of 3TC was injected like the PEP1 peptide. On week 8, the whole blood was collected from the mouse, and proteins were extracted from the liver of the mouse and subjected to western blotting to observe expression of the proteins.

immune cells = experiment: Distribution of immune cells (FACS) in whole HBV W4P genome-transgenic mice; format: in vivo; conditions: 3TC
Protocol: PEP1 is an HLA Class II-binding peptide derived from telomerase, and a 16-amino acid peptide triggering cytotoxic T-cell and helper T-cell immune responses. Therefore, to observe a change in the distribution of renal immune cells by the PEP1 peptide, transgenic mice were prepared by injecting the whole HBV W4P variant genome, on week 4, the whole blood was collected from the mice, and immune cells were isolated from the kidneys of the mice and then stained with lymphocyte markers (B cells (CD19B), CD4, CD8, NK1.1 cells) and myeloid cell markers (DC (CD11c), a macrophage marker (F4/80), a neutrophil marker (Ly-6G), a monocyte marker (Gr1)) according to an extracellular cell surface staining method for FACS analysis.

INFγ = INFγ activity of immune cells (FACS) in whole HBV W4P genome-transgenic mice; format: in vivo; conditions: 8 weeks; PEP1 50 μg/kg, 3TC 500 μg/kg; HBsAg stimulation 72 hours
Protocol: INF, which is a hormone-like cytokine, is secreted from immune cells against a virus. INFs are present in three types such as α, β and γ, and among these, INFγ is known to be critical for inhibiting the hepatitis B virus (HBV) in humans. Therefore, to observe the activity of INFγ, as an immune response, by the PEP1 peptide, 8 weeks after 50 μg/kg of the PEP1 peptide and 500 μg/kg of 3TC were injected into the caudal vein of each of transgenic mice prepared by injection of the whole HBV W4P variant genome twice a week, the whole blood was collected and a kidney was extracted from the mouse, and then immune cells were isolated and treated with HBsAg for stimulation. Seventy two hours after the stimulation, the INFγ cytokine was accumulated in cells by Brefeldin A and stained by an intracellular staining method for FACS analysis.

macrophages = experiment: Differentiation of macrophages (FACS) in whole HBV W4P genome-transgenic mice; format: in vivo; conditions: eight weeks; PEP1 50 μg/kg, 3TC 500 μg/kg; vs PBS
Protocol: Therefore, to observe if the PEP1 peptide is able to differentiate macrophages to M1, eight weeks after PBS, 50 μg/kg of the PEP1 peptide and 500 μg/kg of 3TC were injected into the caudal vein of each of transgenic mice prepared by injecting the whole HBV W4P variant genome twice a week, the whole blood was collected from the mouse and a kidney of the mouse was extracted, immune cells were isolated and stained with a macrophage marker (F4/80) and M1 marker MHCII through an extracellular cell surface staining method. Afterward, FACS analysis was carried out.

HBV [5] = experiment: Antiviral effect with HSP90 blockage in whole HBV wild-type genome-transfected HepG2 cell line (real-time quantitative PCR); format: cell-based, hepatitis B virus; conditions: HepG2, ETV 30 nM, 24 hours
Protocol: PEP1 has been known to pass through a cell membrane from the outside to the inside of the cells in a shuttle method via HSP90. To confirm if the antiviral effect is reduced in cells by blocking the HSP90 activity based on such a mechanism, in this research, a HepG2 cell line was transiently transfected with the whole HBV wild-type genome, treated with anti-GAPDH, anti-HSP (1 ug/ml, blockage of HSP90 activity) and 17-AAG (1 μM) for 1 hour, ant then with PBS (0.5%), entecavir (ETV, 30 nM) and PEP1 (5 μM) for 24 hours. Subsequently, the supernatant was collected and treated with PEG6000 to precipitate the virus, and viral DNA was extracted and subjected to real-time quantitative PCR to observe an antiviral effect. All experiments are independently performed in triplicate, and a statistical significance test was performed using one-way ANOVA through the Tukey's Multiple Comparison Test. ** p<0.05 versus PBS, and ## p<0.05 versus None.

**Q.** With Nc1ccn([C@@H]2CS[C@H](CO)O2)c(=O)n1 [3TC, ramivudine] as the molecule, how does the “HBsAg inhibitory effect vs control group” value (HBV [1]; 3TC 10 μM, cell line not specified (Huh7, Huh7.5, HepG2 tested)) read?
**A.** The value was “exhibited higher inhibitory effects than the control group”.

**Q.** What about the “HBsAg in both pellets and supernatants” value (HBV [1]; HepG2, 3TC 0.01-100 μM) of the same molecule?
**A.** Its value is “showed inhibitory effects according to concentration”.

**Q.** And the “Virions produced in the supernatant” value (HBV [2]; HepG2, 10 μM, 48 hours)?
**A.** Its value is “inhibitory effect”.

**Q.** What about the “Virion synthesis according to concentration” value (HBV [2]; HepG2, 3TC) of the same molecule?
**A.** Its value is “has an inhibitory effect on virion synthesis according to concentration”.

**Q.** And the “Virions produced in the supernatant” value (HBV [3])?
**A.** Its value is “inhibitory effect”.

**Q.** And the “IL-6 level in culture supernatant” value (IL-6)?
**A.** Its value is “no effect on production of IL-6 cytokine”.

**Q.** And the “Level of HBsAg in serum, reduction effect on week 8” value (HBV [4])?
**A.** Its value is “no such effect”.

**Q.** What about the “Level of HBsAg in serum, up to 4 weeks” value (HBV [4]) of the same molecule?
**A.** The value was “neither the PEP1 peptide nor 3TC showed a reduction effect”.

**Q.** What about the “Serum virion level, inhibitory effect on week 8” value (HBV [4]) of the same molecule?
**A.** Its value is “approximately 52%”.

**Q.** And the “Serum virion level, week 4” value (HBV [4])?
**A.** Its value is “did not show virion inhibitory effects”.

**Q.** What about the “JAK2 phosphorylation in liver” value (HSP 90, SOD, ERK, JAK2) of the same molecule?
**A.** The value was “inhibited phosphorylation”.

**Q.** What about the “Protein phosphorylation of ERK in liver” value (HSP 90, SOD, ERK, JAK2) of the same molecule?
**A.** Its value is “inhibited phosphorylation”.

**Q.** And the “Distribution of immune cells” value (immune cells)?
**A.** Its value is “did not have an influence on the distribution of immune cells”.

**Q.** What about the “INFγ activity of CD4, CD8 and NK1.1 cells” value (INFγ) of the same molecule?
**A.** Its value is “slightly increased activity”.

**Q.** What about the “Distribution of macrophages among myeloid-derived cells” value (macrophages) of the same molecule?
**A.** The value was “did not show a difference”.

**Q.** What about the “Number of cells differentiated to M1” value (macrophages) of the same molecule?
**A.** Its value is “did not show a difference”.

**Q.** For C=C1[C@H](CO)[C@@H](O)C[C@@H]1n1cnc2c(=O)[nH]c(N)nc21 [ETV, entecavir], which “Antiviral effect in untreated cells or cells treated with GAPDH, HSP90 or 17-AAG” value (HBV [5]) is on record?
**A.** Its value is “no difference in the antiviral effect”.
